From paper PMC10590377, “Synthesis of novel coumarin-based thiosemicarbazones and their implications in diabetic management via in-vitro and in-silico approaches” (Scientific Reports, 2023)
Several values for one entry are separate records, joined by “and”; a condition that tells them apart may be missing. Identical values can stand only once. Entries after “also recorded” stand apart in the source; their conditions may differ.

Columns and labels:
α-glucosidase [1] = assay: In-vitro α-glucosidase inhibition assay (4-nitro phenyl α-D-glucopyranoside substrate); format: biochemical; conditions: for Percent inhibition (0.5 mM): test samples 0.5 mM; for IC50: triplicate, ± SEM
Method: The most recent investigations were carried out utilizing the techniques we previously discussed. The enzyme and substrate were dissolved in phosphate buffer (pH 6.8) which also served as the reaction buffer for the experiments. A 96-well plate was used for the following ingredients: enzyme 2 U/2 mL, test samples (0.5 mM), 20 µL/well, enzyme 20 µL/well, and 135 µL/well reaction buffer. The plate was incubated for 15 min at 37 °C. Changes in absorbance brought on by substrate breakdown were measured at 400 nm for 30 min after each well-received 25 µL of 4-nitro phenyl α-D-glucopyranoside.
The formula below was used to compute the percent inhibition of all drugs tested.1 the%Inhibition=100-O.Dtestcompound/O.Dcontrol×100
EZ-FIT (Perrella Scientific, Inc., USA) to calculate the IC50 for all antidiabetic agents under the study.

α-glucosidase [2] = assay: Kinetic studies of α-glucosidase inhibition (Lineweaver–Burk, secondary replot, Dixon plots); format: biochemical; conditions: for type / mode of inhibition: Lineweaver–Burk plots; for Ki: secondary replot of Lineweaver–Burk plots, reconfirmed by Dixon plots
Excerpt: In such types of inhibition, the Vmax of the enzyme remains constant, while the Km value increases (Fig. 3). Lineweaver–Burk plots were used to determine the type of inhibition of the given compounds, in which the reciprocal of the reaction rate was plotted vs. the reciprocal of substrate concentrations to investigate their effect on the Km and Vmax of the α-glucosidase (Fig. 3). To determine the Ki values for all compounds evaluated for kinetics study secondary replot of Lineweaver–Burk plots were applied by taking the slope of each line in Lineweaver–Burk plots vs. different concentrations of the tested compounds. Further Dixon plots were used for the reconfirmation of Ki values (Fig. 3).
Figure 3 The inhibitory mode of 3c, 3g and 3i against α-glucosidase enzyme (A) Line weaver-Burk plot of reciprocal of rate of reaction (velocities) vs reciprocal of substrate p-nitro phenyl-α-D-glucopyranoside in the absence of (filled black square), and in the presence of 7.00 (filled black circle), 3.50 (open circle) and 1.75 µM (open square) of 3c, 3g and 3i. (B) Secondary replot of Line weaver-Burk plot between the slopes of each line on Line weaver-Burk plot against different concentrations of 3c, 3g and 3i. (C) Dixon plot of reciprocal of rate of reaction (velocities) vs different concentrations of 3c, 3g and 3i.

SMILES | Percent inhibition (0.5 mM) (α-glucosidase [1]) [%] | IC50 (α-glucosidase [1]) | type / mode of inhibition (α-glucosidase [2]) | Ki (α-glucosidase [2]) [µM]
O=c1oc2ccccc2c(Cl)c1/C=N/NC(=S)Nc1ccccc1 [Compound 3a, (E)-2-((4-chloro-2-oxo-2H-chromen-3-yl)methylene)-N-phenylhydrazine-1-carbothioamide] | 92.45 | 10 µM and 10.1 µM | – | –
COc1cccc(NC(=S)N/N=C/c2c(Cl)c3ccccc3oc2=O)c1 [Compound 3b, (E)-2-((4-chloro-2-oxo-2H-chromen-3-yl)methylene)-N-(3-methoxyphenyl)hydrazine-1-carbothioamide] | 94.67 | 6.1 ± 0.11 µM | – | –
O=c1oc2ccccc2c(Cl)c1/C=N/NC(=S)Nc1cc(Cl)c(Cl)cc1Cl [Compound 3c, (E)-2-((4-chloro-2-oxo-2H-chromen-3-yl)methylene)-N-(2,4,5-trichlorophenyl) hydrazine-1-carbothioamide] | 94.68 | 2.57 ± 0.03 µM | competitive inhibitor; also recorded: concentration-dependent inhibition | 1.62 ± 0.041
O=c1oc2ccccc2c(Cl)c1/C=N/NC(=S)NCc1ccccc1 [Compound 3d, (E)-N-benzyl-2-((4-chloro-2-oxo-2H-chromen-3-yl)methylene) hydrazine-1-carbothioamide] | 91.20 | 12.6 ± 0.16 µM | – | –
Cc1ccc(NC(=S)N/N=C/c2c(Cl)c3ccccc3oc2=O)cc1 [Compound 3e, (E)-2-((4-chloro-2-oxo-2H-chromen-3-yl)methylene)-N-(p-tolyl) hydrazine-1-carbothioamide] | 92.75 | 9.11 ± 0.2 µM | – | –
O=c1oc2ccccc2c(Cl)c1/C=N/NC(=S)NC1CCCCC1 [Compound 3f, (E)-2-((4-chloro-2-oxo-2H-chromen-3-yl)methylene)-N-cyclohexylhydrazine-1-carbothioamide] | 91.70 | 11.2 ± 0.24 µM | – | –
O=c1oc2ccccc2c(Cl)c1/C=N/NC(=S)NCCc1ccccc1 [Compound 3g, (E)-2-((4-chloro-2-oxo-2H-chromen-3-yl)methylene)-N-phenethylhydrazine-1-carbothioamide] | 95.15 | 2.33 ± 0.04 µM | competitive inhibitor | 1.33 ± 0.0027
COc1ccc(NC(=S)N/N=C/c2c(Cl)c3ccccc3oc2=O)cc1 [Compound 3h, (E)-2-((4-chloro-2-oxo-2H-chromen-3-yl)methylene)-N-(4-methoxyphenyl) hydrazine-1-carbothioamide] | 94.63 | 3.4 ± 0.08 µM | – | –
O=c1oc2ccccc2c(Cl)c1/C=N/NC(=S)Nc1ccc([N+](=O)[O-])cc1 [Compound 3i, (E)-2-((4-chloro-2-oxo-2H-chromen-3-yl)methylene)-N-(4-nitrophenyl) hydrazine-1-carbothioamide] | 95.30 | 2.13 ± 0.04 µM | competitive inhibitor | 1.51 ± 0.0086
Cc1cccc(C)c1NC(=S)N/N=C/c1c(Cl)c2ccccc2oc1=O [Compound 3j, (E)-2-((4-chloro-2-oxo-2H-chromen-3-yl)methylene)-N-(2,6-dimethylphenyl) hydrazine-1-carbothioamide] | 91.29 | 22.1 ± 0.37 µM | – | –
O=c1oc2ccccc2c(Cl)c1/C=N/NC(=S)Nc1cccc(Cl)c1Cl [Compound 3k, (E)-2-((4-chloro-2-oxo-2H-chromen-3-yl)methylene)-N-(2,3-dichlorophenyl) hydrazine-1-carbothioamide] | 92.54 | 4.22 ± 0.1 µM | – | –
O=c1oc2ccccc2c(Cl)c1/C=N/NC(=S)Nc1ccccc1F [Compound 3l, (E)-2-((4-chloro-2-oxo-2H-chromen-3-yl)methylene)-N-(2-fluorophenyl) hydrazine-1-carbothioamide] | 92.08 | 8.84 ± 0.16 µM | – | –
CNC(=S)N/N=C/c1c(Cl)c2ccccc2oc1=O [Compound 3m, (E)-2-((4-chloro-2-oxo-2H-chromen-3-yl)methylene)-N-methylhydrazine-1-carbothioamide] | 91.37 | 24.2 ± 0.31 µM | – | –
C[C@H]1O[C@H](O[C@H]2[C@H](O)[C@@H](O)[C@@H](O[C@H]3[C@H](O)[C@@H](O)C(O)O[C@@H]3CO)O[C@@H]2CO)[C@H](O)[C@@H](O)[C@@H]1N[C@H]1C=C(CO)[C@@H](O)[C@H](O)[C@H]1O (stereo partly drawn) [acarbose, reference compound] | 59.37 | – | – | –
